For this test, the target named is Cyclin-A1/Cyclin-A2/Cyclin-dependent kinase 2 (Homo sapiens, UniProt P24941). As to the kind of experiment: Inhibition of recombinant Cdk2/cyclinA.

In general, IC50 refers to the concentration needed to halve the response being measured. Regarding `Cc1csc(-c2ccc(CNc3nc(N[C@H]4CC[C@H](N)CC4)nc4c3ncn4C(C)C)s2)n1`, the half-maximal inhibitory concentration (IC50) is 0.1 nM.

Regarding `CC(C)n1cnc2c(NCc3ccc(-c4cccs4)nc3)nc(N[C@H]3CC[C@H](N)CC3)nc21`, the half-maximal inhibitory concentration (IC50) was determined as 0.9 nM.

The record behind these values is BindingDB's records for doi:10.1016/j.bmcl.2009.10.011 (AMRI, 2009).
